# Experimental data reported in patent US9174965B2, “Pyrimidinylpiperidinyloxypyridone analogues as GPR119 modulators” (BRISTOL-MYERS SQUIBB COMPANY, priority 2012, dated 2015).
# Where two headings read alike, the source gives them in different places.
# What was measured:
# male C57BL/6J mice = assay: Mouse oral glucose tolerance test; assay type: in vivo; conditions: for Glucose Lowering: at the minimally efficacious dose, plasma glucose AUC in oGTT; for Minimally efficacious Dose: oGTT in C57BL/6J mice
# Experimental: Mouse Oral Glucose Tolerance Test
# Twenty four (24) male C57BL/6J mice (8-10 weeks old, average weight 28 g) were randomized into 4 groups (1 mouse/cage) of 6 mice per group based on fed plasma glucose and body weight. Prior to initiating the study, mice were fasted overnight and the next morning they were weighed and placed in the experimental lab. After 30 min in the environment, the mice were bled via tail tip at −60 min and immediately given their first oral administration of vehicle (40% PEG400, 10% Cremophor EL, 50% water) or compound solutions (5 ml/kg). At time 0 the mice were bled and given 50% glucose (2 g/kg) to initiate the oral glucose tolerance test (oGTT). The mice were bled 30, 60 and 120 min after the glucose load. Blood samples were drawn into potassium EDTA, placed on ice during the study and subsequently centrifuged for 10 min at 3000 rpm at 4° C. Plasma samples were diluted 11-fold for glucose analysis in the COBAS MIRA® System (Roche Diagnostics). Area under the curve was calculated from the plasma glucose time course data using the trapezoid rule with fasting plasma glucose as the baseline (GraphPad Prism Software). The statistical significance of the changes in the glucose AUCs resulting from the different treatments was determined by one-way ANOVA followed by Dunnett's test using the vehicle group as the control (JMP software, release 5.1.2).
# Find below in Table 7 data for compared compounds (See WO 2009/012275 A1).
# [1] = Compound bioavailability assay in rats; assay type: in vivo; conditions: male, Sprague-Dawley, plasma, rat, oral
# Experimental: Compound Bioavailability Assays
# Male Sprague-Dawley rats (270-350 g) were used in the pharmokinetic studies. Two (2) groups of animals (N=3 per group) were fasted overnight and one group received test compound as an IV infusion dose (1 mg/kg over 10 minutes) via a jugular vein in PEG-400/propylene glycol/ethanol (50:40:10) or Cremophor-EL/PEG400/water (10:40:50, v/v/v). The other group received test compound by oral gavage (2 or 5 mg/kg) as either nano-suspension in Pluronic F-108/polyvinylpyrrolidinone/water (1:2.5:96.5, v/v/v) or in Methocel A4M/Tween 80/water (0.5:0.1:99.4, v/v/v) as suspension (partical size: d50=0.960 μm; d90=4.4 μm) for oral dosing. […]
# Pharmacokinetic parameters were obtained by non-compartmental analysis of plasma concentration vs. time data (KINETICA™ software, Version 5.0, Thermo Fisher Scientific Corporation, Philadelphia, Pa.). The peak concentration (Cmax) and time for Cmax (Tmax) were recorded directly from experimental observations. The area under the curve from time zero to the last sampling time [AUC(0-T)] and the area under the curve from time zero to infinity [AUC(INF)] were calculated using a combination of linear and log trapezoidal summations. […] Estimations of AUC and T-HALF were made using a minimum of 3 timepoints with quantifiable concentrations. […]
# sodium channel SCN5A = sodium channel SCN5A (Homo sapiens (Human), UniProt Q14524); assay: Patch clamp electrophysiology assay, sodium channel; assay type: cell-based; conditions: pH 7.4, 10 μM, HEK293, read-out: Na % Inhibition
# sodium channel SCN5A, sequence (Q14524 whole entry): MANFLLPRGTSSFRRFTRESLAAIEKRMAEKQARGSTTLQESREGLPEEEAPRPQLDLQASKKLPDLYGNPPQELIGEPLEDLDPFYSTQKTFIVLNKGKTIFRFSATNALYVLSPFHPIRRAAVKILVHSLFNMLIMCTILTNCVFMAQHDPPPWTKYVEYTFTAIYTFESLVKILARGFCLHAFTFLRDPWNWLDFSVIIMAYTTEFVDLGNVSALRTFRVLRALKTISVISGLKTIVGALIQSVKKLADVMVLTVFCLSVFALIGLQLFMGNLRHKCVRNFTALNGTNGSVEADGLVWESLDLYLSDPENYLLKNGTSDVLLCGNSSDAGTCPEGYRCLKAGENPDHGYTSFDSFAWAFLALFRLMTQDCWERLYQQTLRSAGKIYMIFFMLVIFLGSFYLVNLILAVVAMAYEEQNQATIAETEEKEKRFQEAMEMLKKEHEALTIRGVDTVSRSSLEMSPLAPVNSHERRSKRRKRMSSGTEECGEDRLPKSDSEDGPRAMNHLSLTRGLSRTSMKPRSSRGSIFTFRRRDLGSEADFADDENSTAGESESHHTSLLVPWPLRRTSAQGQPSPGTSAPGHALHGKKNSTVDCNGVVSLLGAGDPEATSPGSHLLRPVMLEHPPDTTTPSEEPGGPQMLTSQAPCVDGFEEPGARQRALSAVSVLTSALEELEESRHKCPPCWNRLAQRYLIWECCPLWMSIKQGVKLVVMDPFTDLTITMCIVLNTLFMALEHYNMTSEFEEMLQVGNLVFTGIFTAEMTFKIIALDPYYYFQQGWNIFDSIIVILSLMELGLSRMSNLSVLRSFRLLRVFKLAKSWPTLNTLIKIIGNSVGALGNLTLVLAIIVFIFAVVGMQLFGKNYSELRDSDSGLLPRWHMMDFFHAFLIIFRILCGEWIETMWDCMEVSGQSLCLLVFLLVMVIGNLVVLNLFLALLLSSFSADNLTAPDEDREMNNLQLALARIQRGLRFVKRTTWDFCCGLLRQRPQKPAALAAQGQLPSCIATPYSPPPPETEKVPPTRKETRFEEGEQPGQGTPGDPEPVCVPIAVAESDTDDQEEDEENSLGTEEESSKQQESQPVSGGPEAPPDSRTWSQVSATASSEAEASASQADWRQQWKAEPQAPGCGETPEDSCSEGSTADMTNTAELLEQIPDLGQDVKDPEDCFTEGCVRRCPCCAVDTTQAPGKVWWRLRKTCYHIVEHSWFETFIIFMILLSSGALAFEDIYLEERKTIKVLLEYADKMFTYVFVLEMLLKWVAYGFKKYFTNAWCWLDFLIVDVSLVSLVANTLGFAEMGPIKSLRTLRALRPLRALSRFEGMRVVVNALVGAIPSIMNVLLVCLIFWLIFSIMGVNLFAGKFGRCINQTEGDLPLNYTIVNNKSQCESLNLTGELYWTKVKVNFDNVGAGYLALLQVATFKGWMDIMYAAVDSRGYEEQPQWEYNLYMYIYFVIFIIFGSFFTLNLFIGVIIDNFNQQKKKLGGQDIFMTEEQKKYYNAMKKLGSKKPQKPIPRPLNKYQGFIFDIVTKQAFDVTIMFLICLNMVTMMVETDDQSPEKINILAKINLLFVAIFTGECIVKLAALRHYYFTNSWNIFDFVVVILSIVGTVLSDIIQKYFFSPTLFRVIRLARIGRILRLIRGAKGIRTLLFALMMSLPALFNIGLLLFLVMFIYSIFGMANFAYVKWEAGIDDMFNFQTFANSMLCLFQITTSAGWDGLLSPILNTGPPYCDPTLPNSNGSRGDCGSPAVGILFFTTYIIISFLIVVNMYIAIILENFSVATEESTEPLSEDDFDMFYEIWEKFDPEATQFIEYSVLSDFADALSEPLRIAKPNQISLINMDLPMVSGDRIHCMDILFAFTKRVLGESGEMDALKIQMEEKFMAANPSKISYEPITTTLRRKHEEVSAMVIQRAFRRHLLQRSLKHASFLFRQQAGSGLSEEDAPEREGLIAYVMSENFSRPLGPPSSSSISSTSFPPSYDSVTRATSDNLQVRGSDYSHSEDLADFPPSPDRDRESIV
# Experimental: Compound Electrophysiology Assays
# Recombinant ion channels (hERG, sodium [SCN5A], and L-type calcium [Cav1.2]) stably expressed in human embryonic kidney cells (HEK293) are used as test systems, and each system is tested using 2-3 replicates in the conventional patch clamp assay.
# Ion channel membrane current recordings are made with a Multiclamp 700 series integrating patch-clamp amplifier (Axon Instruments, Foster City, Calif.) using the whole-cell variant of the patch-clamp technique.
# Cells expressing hERG, sodium [SCN5A], or L-type calcium [Cav1.2] channels are placed in a plexiglass bath chamber, mounted on the stage of an inverted microscope, and perfused continuously with bath solution.
# The sodium current bath solution contains (in mM): 70 NaCl, 70 NMDG, 4 KCl, 1.8 CaCl2, 1 MgCl2, 10 glucose, 10 HEPES (pH 7.4, NaOH). The patch pipette filling solution used in sodium experiments contains (in mM): 130 KCl, 1 MgCl2, 1 CaCl2, 5 ATP-K2, 10 EGTA, 10 HEPES (pH 7.2, KOH).
# For determining steady state inhibition, sodium currents are elicited every 5 seconds (0.2 Hz) using the following voltage protocol. Cells are held at a potential of −90 mV and stepped to −20 mV for 45 ms. The peak sodium current in response to the depolarizing step to −20 mV is monitored in the control buffer and after application of test article until a new steady state in the presence of the test article is achieved. To assess the rate dependent inhibition of the sodium currents, trains of voltage steps at frequencies of 1 and 4 Hz (30 sweeps each) are applied to the cell prior to application of test article (control) and after steady state inhibition by test article, as determined at 0.2 Hz frequency. The voltage waveform used in the rate dependence experiments is the same as the waveform used for evaluating steady state inhibition at 0.2 Hz stimulation frequency. Rate dependent inhibition is calculated by comparing the 30th voltage sweep in presence of test article to the 30th voltage sweep under control conditions at each frequency tested.
# Compounds are tested in 3 cells at each concentration in each ion channel assay. Currents are sampled at rates at least 2 times the low pass filter rate. The flow rate is kept constant throughout the experiments. All currents were recorded at room temperature ˜25° C. IC50 values are calculated using the sigmoidal concentration-response equation Y=A+((B−A)/(1+((C/X)^D))) in XLfit where A and B are the minimum and maximum % inhibition, C is the IC50 and D is the slope factor.
# Find below in Table 11 data for compared compounds (See WO 2011/127106 A1).
SMILES,Glucose Lowering (male C57BL/6J mice),Minimally efficacious Dose (male C57BL/6J mice),bioavailability ([1]; 5 mg/kg as a microsuspension),inhibition at 10 µM (sodium channel SCN5A; 1 Hz),inhibition at 10 µM (sodium channel SCN5A; 4 Hz),bioavailability ([1]; 2 mg/kg as a microsuspension),"inhibition at 10 µM (sodium channel SCN5A; human, 1 Hz)","inhibition at 10 µM (sodium channel SCN5A; human, 4 Hz)"
"Cc1nc(-n2cc(Cl)c(OC3CCN(c4ncc(Cl)cn4)CC3)cc2=O)ccc1N1CC[C@H](O)C1=O [Example 3, (S)-5-chloro-4-((1-(5-chloropyrimidin-2-yl)piperidin-4-yl)oxy)-5′-(3-hydroxy-2-oxopyrrolidin-1-yl)-6′-methyl-2H-[1,2′-bipyridin]-2-one]",−26%,0.03 mg/kg,120%,14%,23%,–,–,–
"Cc1nc(-n2cc(Cl)c(OC3CCN(c4ncc(Cl)cn4)CC3)cc2=O)ccc1N1CC[C@@H](O)C1=O [Example 4, (R)-5-chloro-4-((1-(5-chloropyrimidin-2-yl)piperidin-4-yl)oxy)-5′-(3-hydroxy-2-oxopyrrolidin-1-yl)-6′-methyl-2H-[1,2′-bipyridin]-2-one]",−39%,0.03 mg/kg,–,6%,7%,122%,6%,7%
